{"source": "patent US11634434B2", "about": "“Bifunctional alpha-synuclein binding agents and uses thereof” (University of Saskatchewan, priority 2016, dated 2023)", "key": {"alpha-synuclein [1]": {"molecular_target": "T1, alpha-synuclein (Homo sapiens, UniProt P37840)", "assay": "Nanopore analysis of alpha-synuclein (blockade current histograms)", "format": "binding", "details": "1 micromolar alpha-synuclein, 20 micromolar compound", "experimental": "The bifunctional molecules were characterized by four different methods. […] If the compound causes a more compact conformation, then the alpha-synuclein can no longer translocate and it simply bumps into the pore giving rise to a very small change in the blockade current.^44-46\n(§1) Nanopore analysis and isothermal titration calorimetry were performed as described previously.^21,54"}, "alpha-synuclein [2]": {"molecular_target": "T1, alpha-synuclein", "assay": "Isothermal titration calorimetry (ITC) binding to alpha-synuclein", "experimental": "as §1"}, "[3]": {"system": "yeast strain 2AS (2 copies of AS-GFP gene)", "format": "cell-based", "experimental": "(§2) Third, the drugs were assayed in a yeast model of Parkinson's Disease, which expresses an alpha-synuclein-Green Fluorescent Protein (AS-GFP) construct under the control of a galactose promoter.\nConstruction of the 1AS and 2AS strains has been described in detail previously.^55 Strains were grown in YPD supplemented with 30 μg/ml of all amino acids. The OD600 was adjusted to 0.05 in drop-out media (no uracil) at 30° C. Drugs were dissolved in methanol at 0.01 micromolar, 0.1 micromolar, 1 micromolar or 10 micromolar followed by addition of 100 micromolar or 5 mM galactose to a final volume of 10 mL."}, "[4]": {"system": "alpha-synuclein-GFP aggregation in yeast strain 2AS", "format": "cell-based", "details": "1 micromolar compound, 5 mM galactose, up to 12 hours", "experimental": "as §2\nFor Analysis of AS-GFP distribution, the 2AS strain was grown overnight in drop-out media. After normalization of culture density, galactose was administered to a final concentration of 5 mM. […] For the yeast recovery assay, yeast cells were obtained after 6 hours induction with 5 mM galactose concentration, washed in galactose free media and the compounds were added to a final concentration of 1 micromolar in a 2 mL reaction mixture. The culture was incubated at 30° C. for 3, 6, and 9 hour intervals. Images were obtained at each interval using an Olympus Infinity (BX51) fluorescence microscope at 100× magnification."}, "yeast strain 2AS": {"system": "yeast strain 2AS", "assay": "Yeast recovery assay, growth of 2AS after 6 hours galactose induction", "format": "cell-based"}, "[5]": {"system": "preformed alpha-synuclein-GFP foci in yeast strain 2AS", "assay": "Yeast recovery assay, fluorescence microscopy of preformed AS-GFP foci", "format": "cell-based", "experimental": "For Analysis of AS-GFP distribution, the 2AS strain was grown overnight in drop-out media. After normalization of culture density, galactose was administered to a final concentration of 5 mM. Fluorescence images were obtained at zero time, 3 hours, 6 hours, 9 hours and 12 hours. For the yeast recovery assay, yeast cells were obtained after 6 hours induction with 5 mM galactose concentration, washed in galactose free media and the compounds were added to a final concentration of 1 micromolar in a 2 mL reaction mixture. The culture was incubated at 30° C. for 3, 6, and 9 hour intervals. Images were obtained at each interval using an Olympus Infinity (BX51) fluorescence microscope at 100× magnification."}, "[6]": {"system": "alpha-synuclein in substantia nigra", "assay": "Immunohistochemistry of alpha-synuclein in substantia nigra of ASIA-treated rats", "format": "in vivo, rat", "details": "7 days of chronic injections", "experimental": "(§3) male Sprague-Dawley rats are used (200 g-300 g). All animals are handled ethically following approved protocols. For the first round of studies, rats are divided into five treatment groups:\n(§4) Rats are subjected to 7-day chronic injection of 3 mg/kg of each test compound, and a forced swim test is conducted after the seventh day to measure motor deficits. […] For a second round of studies, rats are divided into four treatment groups, and the same experiments were repeated:\n(§5) Tissue sections of substantia nigra from each of the treatment groups in the rat studies were evaluated for the presence of tyrosine hydroxylase, DNA (using the nuclear stain DAPI) and alpha-synuclein using immunohistochemistry. After behavioural tests were completed, the rats were euthanized, perfused and fixed in 4% paraformaldehyde. 40 μm brain slices were utilized for the immunohistochemistry procedure. Anti-Tyrosine Hydroxylase—a primary antibody for tyrosine positive neurons, host species rabbit, Millipore, Sigma Aldrich. DAPI—nuclear stain already pre-conjugated (NucBlue Fixed Cell Stain ReadyProbe reagent, Thermo Fisher Scientific). Anti-Alpha Synuclein—primary antibody for Anti-Synuclein, host species mouse, Abcam. Primary antibodies were diluted 1:500. Alexa Fluoro 488 Donkey anti-rabbit IgG—secondary antibody with fluorescent tag, Invitrogen, Thermo Fisher Scientific. Alexa Fluoro 594 Goat anti-mouse IgG—secondary antibody with fluorescent tag, Life Technologies, Thermo Fisher Scientific. Secondary antibodies were diluted 1:1000. Thioflavin S—stain for alpha-synuclein aggregates, Sigma Aldrich. Thioflavin S stock concentration at 5 mg/ml. Final dilution 1:100.\nTyrosine hydroxylase is a marker for dopaminergic neurons and is used to confirm that the desired cells are being imaged. DAPI (4′,6-diamidino-2-phenylindole) is a stain that binds to A-T rich regions in DNA, and is used to identify cell nuclei. Thioflavin S is used to stain aggregated proteins such as amyloid plaques. A higher level of staining with thioflavin S is indicative of a higher degree of protein aggregation."}, "[7]": {"system": "protein aggregation in substantia nigra", "assay": "Thioflavin S staining of substantia nigra of ASIA-treated rats", "format": "in vivo, rat", "experimental": "as §4\nas §5, with “Thioflavin S stock concentration at 5 mg/ml. Final dilution 1:100.” left out"}, "[8]": {"system": "male Sprague-Dawley rats with increased alpha-synuclein expression", "assay": "Forced swim test in ASIA-treated rats", "format": "in vivo, rat", "details": "for success in forced swim test / vigor in forced swim test: last three minutes of the test", "experimental": "as §3, §4\nThe forced swim test is carried out by immersing the rat in water that is sufficiently deep to force the rat to swim. The forced swim test is scored based on the following criteria:\nVigor and success are measures of motor function. Immobility is thought to be a measure of depression.^59 Based on videos of the forced swim test, the amount of time that each rat was motionless was calculated as a form of scoring depression for each treatment. Statistical analysis was carried out using an ordinary one-way ANOVA and Tukey multiple comparisons test."}, "[9]": {"details": "1 micromolar compound added after 6 hours of 5 mM galactose and wash"}}, "note": "Read-outs that look alike come from different tables or passages of the source. For Bind to N and C? in this document: key: Y indicates yes; N indicates no.", "data": [{"smiles": "Cn1c(=O)c2c(nc(CCCCCCNC3CCc4ccccc43)n2C)n(C)c1=O", "note": "(racemic) [Compound C8-6-I]", "values": [{"measurement": "major peak, blockade current", "setting": "alpha-synuclein [1]", "value": "−68", "unit": "pA"}, {"measurement": "nanopore profile (bumping peak / binding)", "setting": "alpha-synuclein [1]; FIG. 3", "value": "do not have a significant bumping peak"}, {"measurement": "increase of Ka for a 10-fold decrease in ionic strength", "setting": "alpha-synuclein [2]; 100 mM KCl versus 1.0M KCl", "value": "approximately 10 fold"}, {"measurement": "# of Binding sites", "setting": "alpha-synuclein [2]; ITC in 100 mM KCl", "value": 1}, {"measurement": "Ka", "setting": "alpha-synuclein [2]; ITC in 100 mM KCl", "value": 560000, "unit": "M⁻¹"}, {"measurement": "Ka", "setting": "alpha-synuclein [2]; ITC in 1.0M KCl", "value": 53000, "unit": "M⁻¹"}, {"measurement": "# of Binding sites", "setting": "alpha-synuclein [2]; ITC in 1.0M KCl, bifunctional molecules (or monomers) per alpha-synuclein molecule, best fit", "value": 1}, {"measurement": "# Binding sites", "setting": "alpha-synuclein [2]; Table 2", "value": 1}, {"measurement": "Ka", "setting": "alpha-synuclein [2]; Table 2, ITC", "value": 53000, "unit": "M⁻¹"}, {"measurement": "Bind to N and C?", "setting": "alpha-synuclein [2]; binds to both N and C portions of alpha-synuclein", "value": "Y"}, {"measurement": "binding constants as measured by ITC, order of magnitude", "setting": "alpha-synuclein [2]; summary statement", "value": "~10^5 M^−1"}, {"measurement": "growth of 2AS yeast", "setting": "[3]; 0.1 micromolar compound + 5 mM galactose", "value": "normal growth"}, {"measurement": "growth of 2AS yeast", "setting": "[3]; 1 micromolar compound + 5 mM galactose", "value": "essentially normal"}, {"measurement": "AS-GFP foci / fluorescence pattern", "setting": "[4]", "value": "by 12 hours the peripheral halo is restored"}, {"measurement": "time of resumption of growth", "setting": "yeast strain 2AS; [9]", "value": "~8", "unit": "h"}, {"measurement": "time of resumption of growth", "setting": "yeast strain 2AS; 10 micromolar compound added after 6 hours of 5 mM galactose and wash", "value": "about 6 hours"}, {"measurement": "fluorescence pattern after compound addition to cells with preformed foci", "setting": "[5]; [9]", "value": "By 9 hours, the peripheral location is restored and the halo reappears"}, {"measurement": "effect on preformed large foci of alpha-synuclein", "setting": "[5]; compound added 6 hours after induction with 5 mM galactose", "value": "can cause preformed large foci of alpha-synuclein to dissipate"}, {"measurement": "level of alpha-synuclein staining in substantia nigra", "setting": "[6]; ASIA + compound 3 mg/kg", "value": "reduced"}, {"measurement": "level of alpha-synuclein staining in substantia nigra", "setting": "[6]; ASIA + compound 5 mg/kg", "value": "reduced"}, {"measurement": "degree of protein aggregation, thioflavin S staining", "setting": "[7]; ASIA + compound 3 mg/kg", "value": "decreases the degree of protein aggregation"}, {"measurement": "degree of protein aggregation, thioflavin S staining", "setting": "[7]; ASIA + compound 5 mg/kg", "value": "decreases the degree of protein aggregation"}, {"measurement": "immobility in forced swim test", "setting": "[8]; ASIA + compound 3 mg/kg", "value": "improved"}, {"measurement": "success in forced swim test", "setting": "[8]; ASIA + compound 3 mg/kg", "value": "improved success"}, {"measurement": "vigor in forced swim test", "setting": "[8]; ASIA + compound 3 mg/kg", "value": "improved vigor"}, {"measurement": "immobility in forced swim test", "setting": "[8]; ASIA + compound 5 mg/kg", "value": "further improved"}, {"measurement": "success in forced swim test", "setting": "[8]; ASIA + compound 5 mg/kg", "value": "further improved success"}, {"measurement": "vigor in forced swim test", "setting": "[8]; ASIA + compound 5 mg/kg", "value": "further improved vigor"}]}]}
